Reference: ChEMBL document CHEMBL1135425, “Antitumor agents. 213. Modeling of epipodophyllotoxin derivatives using variable selection k nearest neighbor QSAR method” (J Med Chem, 2002)
Several values for one entry are separate records, joined by “and”; a condition that tells them apart may be missing. Equal entries are not always repeated.

What follows are compounds tested against DNA topoisomerase II (Homo sapiens) (UniProt P11388+Q02880) (assay: Percentage of intracellular covalent DNA-topoisomerase II complexes formed).
Type: cell-based

Going from COc1cc([C@@H]2c3cc4c(cc3[C@@H](Nc3ccc(I)cc3)[C@H]3COC(=O)[C@H]23)OCO4)cc(OC)c1O to COc1cc([C@@H]2c3cc4c(cc3[C@@H](Nc3ccc(O)cc3)[C@H]3COC(=O)[C@H]23)OCO4)cc(OC)c1O, the Complex formation rises from 64% to 211%.

Going from COc1cc([C@@H]2c3cc(O)c(O)cc3[C@@H](Nc3cccc(O)c3)[C@H]3COC(=O)[C@H]23)cc(OC)c1OC to COc1cc([C@@H]2c3cc(O)c(O)cc3C(Nc3ccc(C#N)cc3)[C@H]3COC(=O)[C@H]23)cc(OC)c1OC (stereo partly specified), the Complex formation rises from 4% to 33%.

Compared with COc1cc([C@@H]2c3cc4c(cc3[C@@H](NC(=O)Nc3ccccc3)[C@H]3COC(=O)[C@H]23)OCO4)cc(OC)c1O, COc1cc([C@@H]2c3cc4c(cc3[C@@H](NC(=O)c3ccccc3)[C@H]3COC(=O)[C@H]23)OCO4)cc(OC)c1O is higher in Complex formation: 148% for the first, 177% for the second.

COC(=O)c1ccc(N[C@@H]2c3cc4c(cc3[C@@H](c3cc(OC)c(O)c(OC)c3)[C@H]3C(=O)OC[C@@H]32)OCO4)cc1 and CCOC(=O)c1ccc(N[C@@H]2c3cc4c(cc3[C@@H](c3cc(OC)c(O)c(OC)c3)[C@H]3C(=O)OC[C@@H]32)OCO4)cc1 are the same in Complex formation: 207% for the first, 207% for the second.

Compared with COc1cc([C@@H]2c3cc4c(cc3[C@@H](Nc3ccc5c(c3)OCCO5)[C@H]3COC(=O)[C@H]23)OCO4)cc(OC)c1O, COc1cc([C@@H]2c3cc4c(cc3C(Nc3ccc5c(c3)OCCO5)[C@H]3COC(=O)[C@H]23)OCO4)cc(O)c1O (stereo partly specified) is lower in Complex formation: 279% for the first, 119% for the second.

First: COc1cc([C@@H]2c3cc4c(cc3[C@@H](NC(=O)c3cccc(C#N)c3)[C@H]3COC(=O)[C@H]23)OCO4)cc(OC)c1O
Second: COc1cc([C@@H]2c3cc4c(cc3[C@@H](NC(=O)c3cccc(F)c3)[C@H]3COC(=O)[C@H]23)OCO4)cc(OC)c1O
The Complex formation of the first is higher: 149% for the first, 116% for the second.

Going from COc1cc([C@@H]2c3cc4c(cc3[C@@H](NC(=O)c3ccc([N+](=O)[O-])cc3)[C@H]3COC(=O)[C@H]23)OCO4)cc(OC)c1O to COc1cc([C@@H]2c3cc4c(cc3[C@@H](NC(=O)c3ccc(F)cc3)[C@H]3COC(=O)[C@H]23)OCO4)cc(OC)c1O, the Complex formation falls from 160% to 117%.

Compared with COc1cc([C@@H]2c3cc4c(cc3C(Nc3ccc([N+](=O)[O-])cc3)[C@H]3COC(=O)[C@H]23)OCO4)cc(O)c1O (stereo partly specified), COc1cc([C@@H]2c3cc4c(cc3[C@@H](Nc3ccc(Cl)cc3)[C@H]3COC(=O)[C@H]23)OCO4)cc(OC)c1O is lower in Complex formation: 200% for the first, 99% for the second.

Compared with COc1cc([C@@H]2c3cc4c(cc3[C@@H](Nc3cccnc3)[C@H]3COC(=O)[C@H]23)OCO4)cc(OC)c1O, COc1cc([C@@H]2c3cc4c(cc3[C@@H](Nc3cccc(Br)c3)[C@H]3COC(=O)[C@H]23)OCO4)cc(OC)c1O is lower in Complex formation: 148% for the first, 62% for the second.

Compared with COc1cc([C@@H]2c3cc4c(cc3[C@@H](Oc3ccc(O)cc3)[C@H]3COC(=O)[C@H]23)OCO4)cc(OC)c1O, COc1cc([C@@H]2c3cc4c(cc3[C@@H](Oc3ccc(F)cc3)[C@H]3COC(=O)[C@H]23)OCO4)cc(OC)c1O is higher in Complex formation: 34% for the first, 57% for the second.

Compared with COc1cc([C@@H]2c3cc4c(cc3[C@@H](NCc3cccc(N)c3)[C@H]3COC(=O)[C@H]23)OCO4)cc(OC)c1O, COc1cc([C@@H]2c3cc4c(cc3[C@@H](NCc3ccccc3N)[C@H]3COC(=O)[C@H]23)OCO4)cc(OC)c1O is lower in Complex formation: 191% for the first, 184% for the second.

Going from COc1cc([C@@H]2c3cc4c(cc3[C@@H](NCc3ccc(C(F)(F)F)cc3)[C@H]3COC(=O)[C@H]23)OCO4)cc(OC)c1O to COc1cc([C@@H]2c3cc4c(cc3[C@@H](NCc3ccc([N+](=O)[O-])cc3)[C@H]3COC(=O)[C@H]23)OCO4)cc(OC)c1O, the Complex formation rises from 99% to 216%.

Going from COC(=O)c1cccc(N[C@@H]2c3cc4c(cc3[C@@H](c3cc(OC)c(O)c(OC)c3)[C@H]3C(=O)OC[C@@H]32)OCO4)c1 to COC(=O)c1cccc(NC2c3cc4c(cc3[C@@H](c3cc(O)c(O)c(OC)c3)[C@H]3C(=O)OC[C@H]23)OCO4)c1 (stereo partly specified), the Complex formation falls from 249% to 94%.

First: COc1cc([C@@H]2c3cc4c(cc3[C@@H](NC(=O)NCCCl)[C@H]3COC(=O)[C@H]23)OCO4)cc(OC)c1O
Second: COCCN[C@@H]1c2cc3c(cc2[C@@H](c2cc(OC)c(O)c(OC)c2)[C@H]2C(=O)OC[C@@H]21)OCO3
The Complex formation of the first is higher: 143% for the first, 111% for the second.

Compared with COc1cc([C@@H]2c3cc4c(cc3[C@@H](Nc3ccc(C#N)cc3)[C@H]3COC(=O)[C@H]23)OCO4)cc(OC)c1O, COc1cc([C@@H]2c3cc4c(cc3[C@@H](Nc3ccc(F)cc3)[C@H]3COC(=O)[C@H]23)OCO4)cc(OC)c1O is higher in Complex formation: 211% for the first, 213% for the second.

Going from C=CCN[C@@H]1c2cc3c(cc2[C@@H](c2cc(OC)c(O)c(OC)c2)[C@H]2C(=O)OC[C@@H]21)OCO3 to COc1cc([C@@H]2c3cc4c(cc3[C@@H](NC[C@H](C)O)[C@H]3COC(=O)[C@H]23)OCO4)cc(OC)c1O, the Complex formation rises from 84.1% to 167%.

Compared with CCOC(=O)CC[C@H](NC(=O)c1ccc(N[C@@H]2c3cc4c(cc3[C@@H](c3cc(OC)c(O)c(OC)c3)[C@H]3C(=O)OC[C@@H]32)OCO4)cc1)C(=O)OCC, COc1cc([C@@H]2c3cc4c(cc3[C@@H](NC(=O)c3ccc(OC(C)=O)cc3)[C@H]3COC(=O)[C@H]23)OCO4)cc(OC)c1O is higher in Complex formation: 83% for the first, 137% for the second.

Compared with COc1ccc(N[C@@H]2c3cc4c(cc3[C@@H](c3cc(OC)c(O)c(OC)c3)[C@H]3C(=O)OC[C@@H]32)OCO4)c([N+](=O)[O-])c1, COc1ccc([N+](=O)[O-])cc1N[C@@H]1c2cc3c(cc2[C@@H](c2cc(OC)c(O)c(OC)c2)[C@H]2C(=O)OC[C@@H]21)OCO3 is lower in Complex formation: 15% for the first, 12% for the second.

Compared with COc1cc([C@@H]2c3cc(O)c(O)cc3C(Nc3ccc(F)cc3)[C@H]3COC(=O)[C@H]23)cc(OC)c1O (stereo partly specified), CCOC(=O)c1ccc(NC2c3cc(O)c(O)cc3[C@@H](c3cc(OC)c(O)c(OC)c3)[C@H]3C(=O)OC[C@H]23)cc1 (stereo partly specified) is higher in Complex formation: 52% for the first, 138% for the second.

Going from COC1=CC([C@@H]2c3cc4c(cc3C(NC(N=O)C(C)C)[C@H]3COC(=O)[C@H]23)OCO4)=CC(=O)C1(O)CC(C)=O (stereo partly specified) to CCC(C)N[C@@H]1c2cc3c(cc2[C@@H](c2cc(OC)c(O)c(OC)c2)[C@H]2C(=O)OC[C@@H]21)OCO3 (stereo partly specified), the Complex formation rises from 1% to 73%.

Compared with COc1cc([N+](=O)[O-])c(OC)cc1N[C@@H]1c2cc3c(cc2[C@@H](c2cc(OC)c(O)c(OC)c2)[C@H]2C(=O)OC[C@@H]21)OCO3, COc1ccc(N[C@@H]2c3cc4c(cc3[C@@H](c3cc(OC)c(O)c(OC)c3)[C@H]3C(=O)OC[C@@H]32)OCO4)cc1OC is higher in Complex formation: 4.4% for the first, 180% for the second.

First: COc1cc2c(cc1OC)[C@@H](c1cc(OC)c(O)c(OC)c1)[C@H]1C(=O)OC[C@@H]1C2Nc1ccc([N+](=O)[O-])cc1 (stereo partly specified)
Second: COc1cc2c(cc1OC)[C@@H](c1cc(OC)c(O)c(OC)c1)[C@H]1C(=O)OC[C@@H]1C2Nc1ccc(F)cc1 (stereo partly specified)
The Complex formation of the first is lower: 75% for the first, 108% for the second.

Going from COc1cc([C@@H]2c3cc4c(cc3[C@@H](NC(=O)c3ccc(N)cc3)[C@H]3COC(=O)[C@H]23)OCO4)cc(OC)c1O to COc1cc([C@@H]2c3cc4c(cc3[C@@H](NC(=O)c3ccc(C#N)cc3)[C@H]3COC(=O)[C@H]23)OCO4)cc(OC)c1O, the Complex formation rises from 120% to 159%.

Compared with COc1cc([C@@H]2c3cc4c(cc3[C@@H](NC(=O)c3ccccc3O)[C@H]3COC(=O)[C@H]23)OCO4)cc(OC)c1O, COc1cc([C@@H]2c3cc4c(cc3[C@@H](Nc3ccccc3F)[C@H]3COC(=O)[C@H]23)OCO4)cc(OC)c1O is lower in Complex formation: 160% for the first, 121% for the second.

Compared with COc1cc([C@@H]2c3cc4c(cc3[C@@H](NCc3ccccc3F)[C@H]3COC(=O)[C@H]23)OCO4)cc(OC)c1O, COc1cc([C@@H]2c3cc4c(cc3[C@@H](Nc3ccccc3Cl)[C@H]3COC(=O)[C@H]23)OCO4)cc(OC)c1O is lower in Complex formation: 126% for the first, 32% for the second.

Going from COc1cc([C@@H]2c3cc4c(cc3[C@@H](Nc3ccc(Oc5ccccc5)cc3)[C@H]3COC(=O)[C@H]23)OCO4)cc(OC)c1O to COc1cc([C@@H]2c3cc4c(cc3[C@@H](Nc3ccc(Br)cc3)[C@H]3COC(=O)[C@H]23)OCO4)cc(OC)c1O, the Complex formation rises from 97% to 179%.

Compared with COc1cc([C@@H]2c3cc4c(cc3[C@@H](OC(=O)c3ccc(N)cc3)[C@H]3COC(=O)[C@H]23)OCO4)cc(OC)c1O, COc1cc([C@@H]2c3cc4c(cc3[C@@H](Nc3cccc(F)c3)[C@H]3COC(=O)[C@H]23)OCO4)cc(OC)c1O is higher in Complex formation: 94% for the first, 158% for the second.

First: COc1cc([C@@H]2c3cc4c(cc3[C@@H](Nc3ccccn3)[C@H]3COC(=O)[C@H]23)OCO4)cc(OC)c1O
Second: COc1cc([C@@H]2c3cc4c(cc3[C@@H](Nc3cnc5ccccc5c3)[C@H]3COC(=O)[C@H]23)OCO4)cc(OC)c1O
The Complex formation of the first is lower: 97% for the first, 123% for the second.

Going from COc1cc2c(cc1OC)[C@@H](c1cc(OC)c(OC)c(OC)c1)[C@H]1C(=O)OC[C@@H]1C2Nc1ccc(F)cc1 (stereo partly specified) to CCOC(=O)c1ccc(NC2c3cc(OC)c(OC)cc3[C@@H](c3cc(OC)c(OC)c(OC)c3)[C@H]3C(=O)OC[C@H]23)cc1 (stereo partly specified), the Complex formation rises from 8% to 9%.

First: CCOC(=O)c1ccc(NC2c3cc(OC)c(OC)cc3[C@@H](c3cc(OC)c(O)c(OC)c3)[C@H]3C(=O)OC[C@H]23)cc1 (stereo partly specified)
Second: COc1cc([C@@H]2c3cc4c(cc3[C@@H](Nc3cc(OC)c(OC)c(OC)c3)[C@H]3COC(=O)[C@H]23)OCO4)cc(OC)c1O
The Complex formation of the first is higher: 127% for the first, 47% for the second.

First: COc1cc([C@@H]2c3cc4c(cc3[C@@H](Nc3cccc([N+](=O)[O-])c3)[C@H]3COC(=O)[C@H]23)OCO4)cc(OC)c1O
Second: COc1ccc(NC2c3cc4c(cc3[C@@H](c3cc(O)c(O)c(OC)c3)[C@H]3C(=O)OC[C@H]23)OCO4)cc1OC (stereo partly specified)
The Complex formation of the first is higher: 230% for the first, 69% for the second.

Compared with COc1cc([C@@H]2c3cc4c(cc3[C@@H](Nc3cc(C(F)(F)F)cc(C(F)(F)F)c3)[C@H]3COC(=O)[C@H]23)OCO4)cc(OC)c1O, COc1cc([C@@H]2c3cc4c(cc3[C@@H](Nc3ccc(NC(=O)C56CCC(C)(C(=O)O5)C6(C)C)cc3)[C@H]3COC(=O)[C@H]23)OCO4)cc(OC)c1O (stereo partly specified) is higher in Complex formation: 21% for the first, 88% for the second.

For COc1cc([C@@H]2c3cc4c(cc3[C@@H](NCCCN(C)C)[C@H]3COC(=O)[C@H]23)OCO4)cc(OC)c1O, the Complex formation was 179% and 186%.
For COc1cc([C@@H]2c3cc4c(cc3[C@@H](NCCN3CCCCC3)[C@H]3COC(=O)[C@H]23)OCO4)cc(OC)c1O, the Complex formation was 190% and 183%.
